Structures are written as SMILES. Counter-ions that a name gives are not always drawn.

T1 sequence (P34969 whole entry, the tested form may be a part): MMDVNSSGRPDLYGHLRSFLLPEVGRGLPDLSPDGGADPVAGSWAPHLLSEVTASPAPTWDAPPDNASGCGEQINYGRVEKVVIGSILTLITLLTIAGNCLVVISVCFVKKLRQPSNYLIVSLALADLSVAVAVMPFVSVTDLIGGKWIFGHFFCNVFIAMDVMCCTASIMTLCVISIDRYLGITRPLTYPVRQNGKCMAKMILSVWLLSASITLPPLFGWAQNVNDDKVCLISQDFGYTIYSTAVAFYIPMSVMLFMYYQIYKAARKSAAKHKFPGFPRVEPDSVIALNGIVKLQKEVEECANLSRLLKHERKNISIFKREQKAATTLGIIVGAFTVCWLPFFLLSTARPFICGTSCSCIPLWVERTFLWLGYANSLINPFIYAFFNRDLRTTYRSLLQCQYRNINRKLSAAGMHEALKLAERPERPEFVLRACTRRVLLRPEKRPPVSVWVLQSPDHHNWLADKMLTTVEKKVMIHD

One experiment deals with T1, 5HT7 receptors (Homo sapiens, UniProt P34969). The experiment is described as follows: Functional data (Kb), HitHunter cAMP enzyme fragment complementation assay with 5-HT as agonist. It is filed as cell-based. Details: expressed in transfected cells; G418 selection). Conditions: Table 35, scaffold drawing 615; antagonist mode vs 5-HT; read-out: Kb. As to the method:
Functional efficacy of the compounds of the disclosure on 5-HT7 serotonin receptors were measured in a cell based cAMP enzyme fragment complementation assay using the HitHunter cAMP assay (DiscoveRx). Cells stably expressing human 5HT7 receptors were plated in 96-well plates at 4000 cells/well, 16-20 hours prior to assay in growth media (Ultraculture medium, 2 mM GlutaMax and G418 1 mg/mL. Serial dilutions of the agonist, 5-hydroxytryptamine (5-HT), were prepared in a final concentration range of 10 μM to 10 nM. Compounds of the disclosure were prepared in 3-fold serial dilutions to obtain a final concentration range of 10 μM to 0.1 nM. Compounds of the disclosure are tested for agonist activity in the absence of 5-HT and antagonist activity in the presence of 5-HT. For the cAMP assay, the protocol was followed according to the instructions provided by the supplier. Briefly, cells were incubated with a compound of the disclosure for 30 minutes at 37° C. prior to addition of EC70 concentration of 5-HT. After an additional 30 minutes, cAMP antibody/cell lysis solution was added (20 μL/well) and incubated for 60 minutes at room temperature. cAMP XS+EA reagent is added (20 μL/well) and incubated for 2 hours at room temperature. Luminescence was read on the Envision Multilabel plate reader.
For `CCC1(CC)C[C@H](CCN2CCN(c3ccc(C(F)(F)F)cc3)CC2)NC1=O` [(R)-3,3-diethyl-5-(2-(4-(4-(trifluoromethyl)phenyl)piperazin-1-yl)ethyl)pyrrolidin-2-one], the Kb – broadly, the equilibrium dissociation constant of an antagonist, usually derived from a functional assay – is 137 nM. Consider `CCC1(CC)C[C@H](CCN2CCN(c3ccc(F)c(Cl)c3)CC2)NC1=O` [(R)-5-(2-(4-(3-chloro-4-fluorophenyl)piperazin-1-yl)ethyl)-3,3-diethylpyrrolidin-2-one], for which the Kb is 1.92 nM.

In the case of `CCC1(CC)C[C@H](CCN2CCN(c3cccc(C)c3)CC2)NC1=O` [(R)-5-(2-(4-(3-methylphenyl)piperazin-1-yl)ethyl)-3,3-diethylpyrrolidin-2-one], the Kb was 1.65 nM. As to `CCC1(CC)C[C@H](CCN2CCN(c3ccc(C#N)cc3)CC2)NC1=O` [(R)-4-(4-(2-(4,4-diethyl-5-oxopyrrolidin-2-yl)ethyl)piperazin-1-yl)benzonitrile], the Kb was 544 nM. Turning to `CCC1(CC)C[C@H](CCN2CCN(c3cccc(F)c3)CC2)NC1=O` [(R)-5-(2-(4-(3-fluorophenyl)piperazin-1-yl)ethyl)-3,3-diethylpyrrolidin-2-one], the Kb is 9.89 nM. With `CCC1(CC)C[C@H](CCN2CCN(c3ccccc3Cl)CC2)NC1=O` [(R)-5-(2-(4-(2-chlorophenyl)piperazin-1-yl)ethyl)-3,3-diethylpyrrolidin-2-one], the Kb was found to be 109 nM. For the compound `CCC1(CC)C[C@H](CCN2CCN(c3ccccn3)CC2)NC1=O` [(R)-3,3-diethyl-5-(2-(4-(pyridin-2-yl)piperazin-1-yl)ethyl)pyrrolidin-2-one], the Kb was found to be 4.91 nM. The same measure, in the same setting: next, `CCC1(CC)C[C@H](CCN2CCN(c3ccccc3)CC2)NC1=O` [drawing 615 n=2 R1=Ethyl R2=Ethyl R3=Phenyl, (R)-3,3-diethyl-5-(2-(4-phenylpiperazin-1-yl)ethyl)pyrrolidin-2-one]: 6.59 nM; `CCC1(CC)C[C@H](CCN2CCN(c3ccccc3OC)CC2)NC1=O` [(R)-3,3-diethyl-5-(2-(4-(2-methoxyphenyl)piperazin-1-yl)ethyl)pyrrolidin-2-one]: 230 nM; `CCC1(CC)C[C@H](CCN2CCN(c3ccccc3C)CC2)NC1=O` [(R)-5-(2-(4-(2-methylphenyl)piperazin-1-yl)ethyl)-3,3-diethylpyrrolidin-2-one]: 127 nM.

Staying with this experiment, now noted: Table 36, scaffold drawing 616; antagonist mode vs 5-HT; read-out: Kb.
With `O=C1N[C@H](CCN2CCN(c3ccc(F)cc3)CC2)CC12CC=CC2` [(S)-3-(2-(4-(4-fluorophenyl)piperazin-1-yl)ethyl)-2-azaspiro[4.4]non-7-en-1-one], the Kb amounted to 46.2 nM.

For `O=C1N[C@H](CCN2CCN(c3cccc(Cl)c3)CC2)CC12CC=CC2` [(S)-3-(2-(4-(3-chlorophenyl)piperazin-1-yl)ethyl)-2-azaspiro[4.4]non-7-en-1-one], the Kb is 36.3 nM.

`O=C1N[C@H](CCN2CCN(c3ccc(F)cc3)CC2)CC12CCCC2` [(S)-3-(2-(4-(4-fluorophenyl)piperazin-1-yl)ethyl)-2-azaspiro[4.4]nonan-1-one]: the Kb was found to be 52.6 nM. In the case of `O=C1N[C@H](CCN2CCN(c3cccc(Cl)c3)CC2)CC12CCCC2` [(S)-3-(2-(4-(3-chlorophenyl)piperazin-1-yl)ethyl)-2-azaspiro[4.4]nonan-1-one], the Kb came to 48.4 nM.

The experiment is the same for the next values; noted with them: Table 37, scaffold drawing 617; antagonist mode vs 5-HT; read-out: Kb.
In the case of `CS(=O)(=O)N1CCC2(CC1)C[C@H](CCN1CCN(c3ccc(F)cc3)CC1)NC2=O` [drawing 617 n=2 R3=4-F-Phenyl R7=MeSO2, (R)-3-(2-(4-(4-fluorophenyl)piperazin-1-yl)ethyl)-8-(methylsulfonyl)-2,8-diazaspiro[4.5]decan-1-one], the Kb is 30.7 nM. `CS(=O)(=O)N1CCC2(CC1)C[C@H](CCCN1CCN(c3ccc(F)cc3)CC1)NC2=O` [drawing 617 n=3 R3=4-F-Phenyl R7=MeSO2, (S)-3-(3-(4-(4-fluorophenyl)piperazin-1-yl)propyl)-8-(methylsulfonyl)-2,8-diazaspiro[4.5]decan-1-one]: the Kb is 526 nM. On the same count and under the same terms, next, `CS(=O)(=O)N1CCC2(CC1)C[C@H](CCCN1CCN(c3cccc(Cl)c3)CC1)NC2=O` [drawing 617 n=3 R3=3-Cl-Phenyl R7=MeSO2, (S)-3-(3-(4-(3-chlorophenyl)piperazin-1-yl)propyl)-8-(methylsulfonyl)-2,8-diazaspiro[4.5]decan-1-one]: 321 nM.

Still in this experiment, the particulars now being: Table 39, scaffold drawing 619; antagonist mode vs 5-HT; read-out: Kb.
For the compound `CCC1(CC)C[C@H](CCN2CC3CN(c4ccccc4)CC3C2)NC1=O` (stereo partly drawn) [drawing 619 n=2 R1=Ethyl R2=Ethyl R3=Phenyl, (5R)-3,3-diethyl-5-(2-(5-phenylhexahydropyrrolo[3,4-c]pyrrol-2(1H)-yl)ethyl)pyrrolidin-2-one], the Kb came out at 144 nM.

The same experiment, now with this note: cAMP assay, cells stably expressing human 5HT7 receptors, antagonist activity in the presence of EC70 5-HT; read-out: Kb (nM)^2.
With `CS(=O)(=O)N1CCC2(CC1)C[C@@H](CCN1CCN(c3ccc(F)cc3)CC1)NC2=O` [drawing 618; n=2; R3=4-F-Phenyl; R7=MeSO2, (S)-3-(2-(4-(4-fluorophenyl)piperazin-1-yl)ethyl)-8-(methylsulfonyl)-2,8-diazaspiro[4.5]decan-1-one], the Kb was 74.2 nM.

The next experiment addresses T1, 5HT7 receptors. The experiment is described as follows: Radiolabeled binding (IC50 and Ki), [3H]LSD competition on membranes of cells expressing recombinant 5HT7 receptors. Conditions: Table 35, scaffold drawing 615. Details: expressed in transfected cells. The procedure: Radiolabel Binding Studies for Serotonin 5HT7 Receptors, Method 1:
A solution of the compound of the disclosure to be tested is prepared as a 1-mg/ml stock in Assay Buffer or DMSO according to its solubility. A similar stock of the reference compound chlorpromazine is also prepared as a positive control. Eleven dilutions (5×assay concentration) of the compound of the disclosure and chlorpromazine are prepared in the Assay Buffer by serial dilution to yield final corresponding assay concentrations ranging from 10 pM to 10 μM.
A stock concentration of 5 nM [^3H]LSD (lysergic acid diethyl amide) is prepared in 50 mM Tris-HCl, 10 mM MgCl2, 1 mM EDTA, pH 7.4 (Assay Buffer). Aliquots (50 μl) of radioligand are dispensed into the wells of a 96-well plate containing 100 μl of Assay Buffer. Duplicate 50-μl aliquots of the compound of the disclosure test and chlorpromazine positive control reference compound serial dilutions are added.
Membrane fractions of cells expressing recombinant 5HT7 receptors (50 μL) are dispensed into each well. The membranes are prepared from stably transfected cell lines expressing 5HT7 receptors cultured on 10-cm plates by harvesting PBS-rinsed monolayers, resuspending and lysing in chilled, hypotonic 50 mM Tris-HCl, pH 7.4, centrifuging at 20,000×g, decanting the supernatant and storing at −80° C.; the membrane preparations are resuspended in 3 ml of chilled Assay Buffer and homogenized by several passages through a 26 gauge needle before using in the assay.
The 250-μl reactions are incubated at room temperature for 1.5 hours, then harvested by rapid filtration onto 0.3% polyethyleneimine-treated, 96-well filter mats using a 96-well Filtermate harvester. Four rapid 500-μl washes are performed with chilled Assay Buffer to reduce non-specific binding. The filter mats are dried, then scintillant is added to the filters and the radioactivity retained on the filters is counted in a Microbeta scintillation counter.
Raw data (dpm) representing total radioligand binding (i.e., specific+non-specific binding) are plotted as a function of the logarithm of the molar concentration of the competitor (i.e., test or reference compound). Non-linear regression of the normalized (i.e., percent radioligand binding compared to that observed in the absence of test or reference compound) raw data is performed in Prism 4.0 (GraphPad Software) using the built-in three parameter logistic model describing ligand competition binding to radioligand-labeled sites: y=bottom+[(top-bottom)/(1+10×−logIC50)] where bottom equals the residual radioligand binding measured in the presence of 10 μM reference compound (i.e., non-specific binding) and top equals the total radioligand binding observed in the absence of competitor. The log IC50 (i.e., the log of the ligand concentration that reduces radioligand binding by 50%) is thus estimated from the data and used to obtain the Ki by applying the Cheng-Prusoff approximation: Ki=IC50/(1+[ligand]/KD) • where [ligand] equals the assay radioligand concentration and KD equals the affinity constant of the radioligand for the target receptor.
^1Radiolabeled Binding (IC50 and K1)
A solution of the compound of the disclosure to be tested was prepared as a 1-mg/ml stock in Assay Buffer or DMSO according to its solubility. A similar stock of the reference compound chlorpromazine was also prepared as a positive control. Eleven dilutions (5× assay concentration) of the compound of the disclosure and chlorpromazine were prepared in the Assay Buffer by serial dilution to yield final corresponding assay concentrations ranging from […].
A stock concentration of 5 nM [^3H]LSD (lysergic acid diethyl amide) was prepared in 50 mM Tris-HCl, 10 mM MgCl2, 1 mM EDTA, pH 7.4 (Assay Buffer). Aliquots (50 μl) of radioligand were dispensed into the wells of a 96-well plate containing 100 μl of Assay Buffer. […]
For the compound `CCC1(CC)C[C@H](CN2CCN(c3cccc(Cl)c3)CC2)NC1=O` [(R)-5-((4-(3-chlorophenyl)piperazin-1-yl)methyl)-3,3-diethylpyrrolidin-2-one], the inhibition constant Ki (usually the equilibrium dissociation constant of an inhibitor or competing ligand from its target) was found to be 1090 nM. As for `CCC1(CC)C[C@H](CN2CCN(c3ccc(F)cc3)CC2)NC1=O` [(R)-3,3-diethyl-5-((4-(4-fluorophenyl)piperazin-1-yl)methyl)pyrrolidin-2-one formate], the Ki turned out to be 243 nM.

With `CCC1(CC)C[C@H](CN2CCN(c3ccc(C)cc3)CC2)NC1=O` [(R)-3,3-diethyl-5-((4-(p-tolyl)piperazin-1-yl)methyl)pyrrolidin-2-one formate], the Ki was found to be 249 nM. Still for that read-out and setting: next, `CCC1(CC)C[C@H](CN2CCN(c3ccccc3)CC2)NC1=O` [drawing 615 n=1 R1=Ethyl R2=Ethyl R3=Phenyl, (R)-3,3-diethyl-5-((4-phenylpiperazin-1-yl)methyl)pyrrolidin-2-one formate]: 819 nM; `CCC1(CC)C[C@H](CN2CCN(c3ccccc3C(C)C)CC2)NC1=O` [(R)-3,3-diethyl-5-((4-(2-isopropylphenyl)piperazin-1-yl)methyl)pyrrolidin-2-one formate]: 121 nM; `CCC1(CC)C[C@H](CN2CCN(c3ccccn3)CC2)NC1=O` [(R)-3,3-diethyl-5-((4-(pyridin-2-yl)piperazin-1-yl)methyl)pyrrolidin-2-one formate]: 669 nM.

Staying with this experiment, now noted: Table 35, scaffold drawing 615; read-out: IC50.
As for `CCC1(CC)C[C@H](CCN2CCN(c3ccc(F)c(Cl)c3)CC2)NC1=O` [(R)-5-(2-(4-(3-chloro-4-fluorophenyl)piperazin-1-yl)ethyl)-3,3-diethylpyrrolidin-2-one], the IC50 (in general, the concentration that inhibits the measured activity by half) is 8.7 nM.

Staying with this experiment, now noted: Table 37, scaffold drawing 617.
Consider `CS(=O)(=O)N1CCC2(CC1)C[C@H](CCN1CCN(c3ccc(F)cc3)CC1)NC2=O` [drawing 617 n=2 R3=4-F-Phenyl R7=MeSO2, (R)-3-(2-(4-(4-fluorophenyl)piperazin-1-yl)ethyl)-8-(methylsulfonyl)-2,8-diazaspiro[4.5]decan-1-one], for which the inhibitory constant (Ki) was 89 nM.

The record behind these values is patent US12559494B2, “Functionalized lactams as modulators of the 5-hydroxytryptamine receptor 7 and their method of use” (Temple University - Of The Commonwealth System of Higher …, priority 2018, dated 2026).
